Test results as given in PMC2106221 (The Journal of Cell Biology, 1963).
Where two headings read alike, the source gives them in different places. Values belong to the molecule of their own block, whether it stands above or below them.

Tests used:
[1] = system: trypsin-like amidase and esterase activity in human mast cells (mast cell enzyme(s)); assay type: biochemical; settings: for time required for the appearance of visible mast cells, mean: double-blind; for time to observable mast cells at theoretical Vm: from the Lineweaver-Burk plot; for time for the demonstration of mast cells: optimal substrate concentration
[2] = target: T1, bovine trypsin (crystalline) (Bos taurus, UniProt P00760); assay type: biochemical; settings: for Percentage inhibition 5 min.: DL-BANA 0.60 mM, enzyme 10 μg/ml
T1 sequence (P00760 24-246): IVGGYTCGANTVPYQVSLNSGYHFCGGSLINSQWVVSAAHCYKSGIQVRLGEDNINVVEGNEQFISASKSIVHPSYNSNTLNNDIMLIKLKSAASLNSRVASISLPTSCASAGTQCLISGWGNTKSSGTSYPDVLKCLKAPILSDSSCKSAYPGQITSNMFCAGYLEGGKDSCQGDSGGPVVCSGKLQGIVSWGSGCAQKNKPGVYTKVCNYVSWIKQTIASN

canine mast cells = assay: histochemical reaction in canine skin sections; assay type: biochemical, dog; settings: incubation period of 1 hour
[3] = spontaneous hydrolysis of ester substrate in water/buffer; assay type: physicochemical
chymotrypsin = settings: pH 7.2 ref 2; cited from earlier work
[4] = target: T1, bovine trypsin (crystalline); settings: trypsin 4 X pancreatin (Nutritional Biochemical Corporation) ref 1; cited from earlier work
[5] = diazonium coupling velocity in test tube, spectrophotometric half-reaction times; assay type: physicochemical
[6] = Lineweaver-Burk plot, human mast cells

Compound: Cl.N=C(N)NCCCC(NC(=O)c1ccccc1)C(=O)Nc1ccc2ccccc2c1 (racemic) [DL-BANA, benzoyl-DL-arginine β-naphthylamide hydrochloride]
time required for the appearance of visible mast cells, mean ([1]; Experiment 1, DL-BANA 0.12 mM): 7.0 min
time required for the appearance of visible mast cells, mean ([1]; Experiment 2, DL-BANA 0.050 mM): 15.9 min
time to observable mast cells at theoretical Vm [1]: 2 min
time for the demonstration of mast cells ([1]; human mast cells): 5 to 6 min
Vm ([2]; in the absence of Garnet GBC): 50 mμM β-naphthylamine liberated
Vm ([2]; in the presence of Garnet GBC): 30 mμM β-naphthylamine liberated

Compound: Cl.NCCCCC(NC(=O)c1ccccc1)C(=O)Nc1ccc2ccccc2c1 (racemic) [DL-BLyNA, benzoyl-DL-lysine β-naphthylamide hydrochloride]
time to observable mast cells at theoretical Vm [1]: 2 min
time for the demonstration of mast cells ([1]; human mast cells): 5 to 6 min
reaction in canine mast cells (canine mast cells): No reaction

Compound: NC(=O)[C@H](CCCN=C(N)N)NC(=O)c1ccccc1 [BAA, benzoyl-L-arginine amide, reference compound]
nature of inhibition of DL-BANA hydrolysis [1, 6]: competitive
nature of inhibition of DL-BLyNA hydrolysis ([1]; human mast cells): competitive

Compound: COC(=O)[C@H](CCCNC(=N)N)NC(=O)c1ccccc1 [BAME, benzoyl-L-arginine methyl ester, reference compound]
nature of inhibition of DL-BANA hydrolysis [1, 6]: competitive
nature of inhibition of EACA-AS hydrolysis [1, 6]: competitive inhibitor

Compound: Cl.N=C(N)NCCC[C@@H](NC(=O)c1ccccc1)C(=O)Nc1ccc2ccccc2c1 [D-BANA, benzoyl-D-arginine β-naphthylamide hydrochloride]
nature of inhibition of DL-BANA hydrolysis [1, 6]: competitive inhibitor
hydrolysis in the mast cells ([1]; tested as substrate): not hydrolyzed
nature of inhibition of tryptic hydrolysis of L-BANA [2]: competitive inhibitor
substrate for trypsin [2]: not a substrate for trypsin

spontaneous hydrolysis in water ([3]; pH 5-6): insignificant
substrate concentration at approximately 50 per cent of the reaction velocity ([2]; trypsin, velocity calculated from the Lineweaver-Burk plot): ~20 /ZM
Compound: NCCCCCC(=O)Oc1cc2ccccc2cc1C(=O)Nc1ccccc1 [EACA-AS, Naphthol AS ε-aminocaproate]
substrate concentration at approximately half-maximal velocity ([1]; human mast cells, Fig. 7): ~7 #M
mean substrate concentration during spontaneous hydrolysis ([3]; pH 7.2, during 20 minutes): 92 per cent of the original concentration
mean substrate concentration during spontaneous hydrolysis ([3]; pH 7.2, during 30 minutes): 90 per cent of the original concentration
mean substrate concentration during spontaneous hydrolysis ([3]; pH 7.2, during the first 10 minutes): 95 per cent of the original concentration
hydrolysis by chymotrypsin relative to that of trypsin (chymotrypsin): about 10 per cent

Compound: Cc1ccccc1NC(=O)c1cc2ccccc2cc1OC(=O)CCCCCN [EACA-AS-D, Naphthol AS-D ε-aminocaproate]
results as substrate compared with EACA-AS ([1]; both biochemical and histochemical studies): essentially the same results as EACA-AS

Percentage inhibition 5 min. ([2]; Garnet GBC 0.05 mg/ml): 4.7%
Percentage inhibition 5 min. ([2]; Garnet GBC 0.10 mg/ml): 13.2%
Percentage inhibition 5 min. ([2]; Garnet GBC 0.20 mg/ml): 16.5%
Percentage inhibition 5 min. ([2]; Garnet GBC 0.40 mg/ml): 20.1%
Percentage inhibition 5 min. ([2]; Garnet GBC 2.00 mg/ml): 35.0%
nature of inhibition of tryptic DL-BANA hydrolysis ([2]; Lineweaver-Burk plot): uncompetitive inhibition
inhibition of Vm of DL-BANA hydrolysis by the diazonium salt ([2]; from Lineweaver-Burk plot, Fig. 6): about 40 per cent
change of hydrolysis rate after preincubation with diazonium salt ([2]; preincubation of 60 minutes prior to the addition of substrate): no more than 15 per cent
Compound: Cc1ccccc1N=Nc1ccc([N+]#N)c(C)c1 [Garnet GBC]
inhibition of DL-BANA hydrolysis [4]: Up to 75 per cent

Compound: Nc1ccc2ccccc2c1 [β-naphthylamine]
Half-reaction time of coupling with Garnet GBC ([5]; Garnet GBC 0.70 mg/ml, presence of Tween 20): 7 s
Half-reaction time of coupling with Garnet GBC ([5]; Garnet GBC 0.70 mg/ml, presence of albumin): 48 s
Half-reaction time of coupling with Garnet GBC ([5]; Garnet GBC 0.70 mg/ml, water, pH 7.2): 93 s
Half-reaction time of coupling with Garnet GBC ([5]; Garnet GBC 1.40 mg/ml, presence of Tween 20): 4 s
Half-reaction time of coupling with Garnet GBC ([5]; Garnet GBC 1.40 mg/ml, presence of albumin): 23 s
Half-reaction time of coupling with Garnet GBC ([5]; Garnet GBC 1.40 mg/ml, water, pH 7.2): 42 s
